From patent US8952024B2, “Herbicidal pyrimidone derivatives” (E I du Pont de Nemours and Company, priority 2009, dated 2015)

Tests used:
Assay in all cases: Test B pre-/postemergence plant response
Type in all cases: in vivo
[1] = tested on: pigweed (Amaranthus retroflexus)
From the text: (§1) Seeds of plant species selected from blackgrass (Alopecurus myosuroides), downy bromegrass (Bromus tectorum), green foxtail (Setaria viridis), Italian ryegrass (Lolium multiflorum), wheat (Triticum aestivum), wild oat (Avena fatua), deadnettle (henbit deadnettle, Lamium amplexicaule), galium (catchweed bedstraw, Galium aparine), bermudagrass (Cynodon dactylon), Surinam grass (Brachiaria decumbens), cocklebur (Xanthium strumarium), corn (Zea mays), large crabgrass (Digitaria sanguinalis), woolly cupgrass (Eriochloa villosa), giant foxtail (Setaria faberii), goosegrass (Eleusine indica), johnsongrass (Sorghum halepense), kochia (Kochia scoparia), lambsquarters (Chenopodium album), morningglory (Ipomoea coccinea), nightshade (eastern black nightshade, Solanum ptycanthum), yellow nutsedge (Cyperus esculentus), pigweed (Amaranthus retroflexus), ragweed (common ragweed, Ambrosia elatior), Russian thistle (Salsola kali), soybean (Glycine max), sunflower (common oilseed sunflower, Helianthus annuus) and velvetleaf (Abutilon theophrasti) were planted into a blend of loam soil and sand and treated preemergence with test compounds formulated in a non-phytotoxic solvent mixture which included a surfactant.
(§2) At the same time, plants selected from these crop and weed species and also winter barley (Hordeum vulgare), canarygrass (Phalaris minor), chickweed (Stellaria media) and windgrass (Apera spica-venti) were planted in pots containing Redi-Earth® planting medium (Scotts Company, 14111 Scottslawn Road, Marysville, Ohio 43041) comprising spaghnum peat moss, vermiculite, wetting agent and starter nutrients and treated with postemergence applications of some of the test chemicals formulated in the same manner. Plants ranged in height from 2 to 18 cm (1- to 4-leaf stage) for postemergence treatments.
(§3) Treated plants and controls were maintained in a greenhouse for 13 to 15 days, after which time all treated plants were visually evaluated and compared to controls. Plant response ratings, summarized in Table B, are based on a scale of 0 to 100 where 0 is no effect and 100 is complete control. A dash (-) response means no test result.

[2] = tested on: morningglory (Ipomoea coccinea)
From the text: as §1, §2, §3

[3] = tested on: bermudagrass (Cynodon dactylon)
From the text: as §1, §2, §3

[4] = tested on: wheat (Triticum aestivum)
From the text: as §1, §2, §3

[5] = tested on: giant foxtail (Setaria faberii)
From the text: as §1, §2, §3

[6] = tested on: green foxtail (Setaria viridis)
From the text: as §1, §2, §3

[7] = tested on: johnsongrass (Sorghum halepense)
From the text: as §1, §2, §3

corn (Zea mays) = tested on: corn (Zea mays)
From the text: as §1, §2, §3

[8] = tested on: downy bromegrass (Bromus tectorum)
From the text: as §1, §2, §3

[9] = 250 g ai/ha, Preemergence, 0 to 100 scale
[10] = Postemergence, 31 g ai/ha, scale 0 to 100 (0 no effect, 100 complete control)
[11] = Postemergence, 62 g ai/ha, scale 0 (no effect) to 100 (complete control), 13 to 15 days
[12] = Postemergence, 125 g ai/ha, visual rating after 13 to 15 days, scale 0 (no effect) to 100 (complete control)
[13] = Postemergence, 250 g ai/ha, scale 0 to 100
[14] = Preemergence, 31 g ai/ha, scale 0 to 100 (0 no effect, 100 complete control)
[15] = Preemergence, 62 g ai/ha, scale 0 to 100, 0 no effect, 100 complete control
[16] = Preemergence, 125 g ai/ha, 0 to 100 scale

5-[(2-hydroxy-6-oxo-1-cyclohexen-1-yl)carbonyl]-3-(2-methoxyethyl)-2-(3-thienyl)-4(3H)-pyrimidinone [Compound 97]
45: Plant response rating, Morningglory [2, 11] | Plant response rating, Morningglory [2, 12] | Plant response rating, Bermudagrass [3, 14] | Plant response rating, Foxtail, Giant [5, 9] | Plant response rating, Corn (corn (Zea mays); [12])
95: Plant response rating, Pigweed [1, 12] | Bermudagrass plant response rating [3, 13] | Foxtail, Giant plant response rating [5, 13]
85: Plant response rating, Pigweed [1, 10] | Plant response rating, Pigweed [1, 11]
40: Plant response rating, Morningglory [2, 9]
5: Plant response rating, Wheat [4, 9] | Wheat plant response rating [4, 13]
25: Plant response rating, Foxtail, Green [6, 11]
0: Plant response rating, Morningglory [2, 10] | Plant response rating, Morningglory [2, 14] | Plant response rating, Morningglory [2, 15] | Morningglory plant response rating [2, 16] | Plant response rating, Wheat [4, 10] | Plant response rating, Wheat [4, 11] | Plant response rating, Wheat [4, 12] | Plant response rating, Wheat [4, 14] | Wheat plant response rating [4, 16] | Plant response rating, Foxtail, Giant [5, 14] | Plant response rating, Foxtail, Giant [5, 15] | Foxtail, Giant plant response rating [5, 16] | Plant response rating, Foxtail, Green [6, 14] | Plant response rating, Foxtail, Green [6, 15] | Foxtail, Green plant response rating [6, 16] | Plant response rating, Johnsongrass [7, 10] | Plant response rating, Johnsongrass [7, 14] | Plant response rating, Corn (corn (Zea mays); [9]) | Plant response rating, Corn (corn (Zea mays); [14]) | Plant response rating, Corn (corn (Zea mays); [15]) | Corn plant response rating (corn (Zea mays); [16]) | Plant response rating, Bromegrass, Downy [8, 9] | Plant response rating, Bromegrass, Downy [8, 10]
10: Plant response rating, Foxtail, Green [6, 10] | Plant response rating, Johnsongrass [7, 15]
30: Plant response rating, Foxtail, Green [6, 9]
100: Plant response rating, Pigweed [1, 9] | Pigweed plant response rating [1, 13] | Plant response rating, Pigweed [1, 14] | Plant response rating, Pigweed [1, 15] | Pigweed plant response rating [1, 16] | Plant response rating, Bermudagrass [3, 9] | Bermudagrass plant response rating [3, 16]
75: Plant response rating, Bermudagrass [3, 11] | Plant response rating, Foxtail, Giant [5, 11] | Plant response rating, Johnsongrass [7, 9] | Johnsongrass plant response rating [7, 13]
80: Plant response rating, Bermudagrass [3, 15] | Plant response rating, Foxtail, Giant [5, 12]
60: Plant response rating, Johnsongrass [7, 12] | Johnsongrass plant response rating [7, 16]
55: Morningglory plant response rating [2, 13] | Plant response rating, Johnsongrass [7, 11]
65: Corn plant response rating (corn (Zea mays); [13])
15: Plant response rating, Corn (corn (Zea mays); [10]) | Plant response rating, Corn (corn (Zea mays); [11])
90: Plant response rating, Bermudagrass ([3]; Postemergence, 125 g ai/ha, scale 0 to 100 (0 no effect, 100 complete control), 13 to 15 days)
70: Plant response rating, Bermudagrass [3, 10] | Plant response rating, Foxtail, Giant [5, 10] | Plant response rating, Foxtail, Green [6, 12] | Foxtail, Green plant response rating [6, 13]
